Experiments:
[1] = test system: p21 (CDKN1A) overexpression; experiment: Connectivity map query analysis of L1000 signatures across cell lines; type: cell-based, human; conditions: across multiple cell lines, relative to 430 overexpressed genes
Excerpt: To assess whether our findings extend beyond the context of a single cell type and to incorporate into our analysis orthogonal biological perturbations, we expanded our gene expression studies using L1000 into several cell lines representative of distinct tissue types: PC3 (prostate), HEPG2 (liver), HCC515 (lung), HAlE (kidney), A375 (skin), A549 (lung), HT29 (colon). […] These candidate substrates of HDAC8 may provide a more targeted approach toward specific cancers (or other diseases) driven by the dysregulation of proteins and/or genes within this HDAC8 network. […] Efforts toward defining the functional consequences of the change in acetylation of these proteins by HDAC8 are ongoing.
The raw expression data are log 2-scaled, quantile normalized, and z-scored, such that a differential expression value is achieved for each gene in each well. In the standard L1000 protocol, each well corresponds to a different perturbagen and these differential expression values are collapsed across replicate wells to yield a differential expression signature for each perturbagen. […] To assess this, we did a meta-analysis of the CMap query results (i.e., lists of perturbations ordered by similarity to an input gene expression signature). […] We performed the same analysis with BRD3811 as well. […]

MCF7 cells [2] = experiment: L1000 gene expression profiling; type: cell-based, human; conditions: for number of dose-responsive genes with altered expression: approximately 1,000 landmark genes
Method: Cells were incubated for 24 hours at 37° C. in a humidified incubator containing 5% CO2 before treatment.
These 1,000× stock solutions were first diluted (100-fold) in culture medium, and then the diluted compounds were transferred to the cell culture plates using CyBi-well vario 384-well tips (another 10-fold dilution). Ultimately, all compounds were diluted 1,000-fold to their desired serial concentrations with a final DMSO concentration of 0.1%. Treated cells were incubated for 24 hours prior to lysis. […] Cell lysate plates were sealed using a plate sealer, kept at room temperature for 30 minutes, and then frozen at −80° C. until L1000 gene expression profiling was performed.
In this study, we utilize L1000, a high-throughput, bead-based gene expression assay in which mRNA is extracted from cultured human cells treated with various chemical or genomic perturbagens (small molecules, gene knockdowns, or gene over-expression constructs) as previously described.^38 This mRNA is reverse-transcribed into first-strand cDNA. Gene specific probes containing barcodes and universal primer sites are annealed to the first strand cDNA. The probes are ligated to form a template for PCR. The template is PCR amplified with biotinylated-universal primers. The end products are biotinylated, fixed length, barcoded amplicons. The amplicons can then be mixed with Luminex beads that contain complementary barcodes to those encoded in each of the 1000 amplified landmark genes. These 1000 landmark genes were chosen as a reduced representation of the transcriptome and account for the majority of expression variation across many cellular contexts (Subramanian, et al., manuscript in preparation). These beads are then stained with fluorescent streptavidin-phycoerythrin (SAPE) and detected in 384-well plate format on a Luminex FlexMap flow cytometry-based scanner. The resulting readout is a measure of mean fluorescent intensity (MFI) for each landmark gene.

HDAC8 = target: T1, HDAC8 (Homo sapiens, UniProt Q9BY41); experiment: Caliper assay, biochemical HDAC IC50; conditions: relative to PCI-34051
T1 construct: purchased BPS Bioscience
T1 sequence (Q9BY41 1-377): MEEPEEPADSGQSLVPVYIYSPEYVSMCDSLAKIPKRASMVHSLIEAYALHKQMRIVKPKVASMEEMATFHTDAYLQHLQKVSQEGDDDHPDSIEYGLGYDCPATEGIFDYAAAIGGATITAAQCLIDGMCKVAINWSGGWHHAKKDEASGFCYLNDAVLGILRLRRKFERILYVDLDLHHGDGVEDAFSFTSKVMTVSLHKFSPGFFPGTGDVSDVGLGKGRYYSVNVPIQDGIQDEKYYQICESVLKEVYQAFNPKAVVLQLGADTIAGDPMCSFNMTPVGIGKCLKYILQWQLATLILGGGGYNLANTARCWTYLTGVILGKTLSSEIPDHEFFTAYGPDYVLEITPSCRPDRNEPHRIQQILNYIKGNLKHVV
Method: The biochemical determination of HDAC ICsos for compounds was performed as described previously (Zhang, Y.-L. et al., Fluorescent substrates for determining lysine modifying enzyme activity, 2013, Patent Application WO 2013067391). All HDACs were purchased from BPS Bioscience. The substrates Broad Substrate A and Broad Substrate B were synthesized in house, but can be purchased from PerkinElmer (Product number CLS960006 and CLS960007, respectively). All other reagents were purchased from Sigma. Caliper EZ reader II system was used to collect all data. Compounds were tested in duplicate in a 12-point dose curve with 3-fold serial dilution starting from 33.33 μM. Purified HDACs were incubated with 2 μM carboxyfluorescein (FAM)-labeled acetylated or trifluoroacetylated peptide substrate (Broad Substrate A and B, respectively) and test compound for 60 min at room temperature, in an HDAC assay buffer that contained 50 mM HEPES (pH 7.4), 100 mM KCl, 0.01% BSA and 0.001% Tween-20. […] Substrate and product were separated electrophoretically and fluorescence intensity in the substrate and product peaks was determined and analyzed by Labchip EZ Reader. […] Inhibition of HDAC10 and 11 was not measured due to either low purity of the available recombinant HDAC enzyme preparations and/or lack of activity of the enzymes and low substrate conversion.

p21 = experiment: Western blotting of p21 protein; type: cell-based; conditions: MCF7 cells, 10 μM, 48 h
Method: MCF7 cells were treated with compounds for 48 h, at which time, lysates were collected using RIPA buffer with added protease (Roche) and phosphatase (Roche) inhibitors. Electrophoresis was performed using NuPage 4-12% Bis-Tris gels (Invitrogen). Proteins were transferred to a nitrocellulose membrane and probed using antibodies for p21 (Cell Signaling) and GAPDH (Cell Signalling). Chemiluminescence was induced by subsequent incubation with HRP-linked secondary antibodies (GE Healthcare UK Ltd.) and treatment of the membrane with the appropriate ECL solutions (Thermo Scientific). Visualization was accomplished using a ChemiDoc MP System (Bio-Rad), and the raw data files were converted to jpegs using ImageJ (NIH).

MCF-7 cells = experiment: Global histone modification profiling; type: cell-based; conditions: 10 μM for 24 h
Method: Each row represents a unique combination of histone modifications (as denoted by “Histone Mark”) and each column represents a treatment of MCF-7 cells with the compound indicated at 10 μM for 24 h. Each compound treatment was performed in biological duplicate (R1 and R2). Each cell is colored by the log2-fold change over the average of the DMSO replicates as denoted in the scale bar. Global histone profiles were obtained in a manner essentially equivalent to a previous report. (Kim, J. H., Yu, S., Chen, J. D., Kong, A. N. (2013) The nuclear cofactor RAC3/AIB1/SRC-3 enhances Nrf2 signaling by interacting with transactivation domains. Oncogene 32, 514-527).

MCF7 cells [3] = experiment: SILAC-based global acetylation profiling; type: cell-based; conditions: compared to DMSO or BRD3811
Excerpt: Using these chemical tools, we compared the changes in global acetylation in a representative cell line known to express HDAC8 (i.e. MCF7) after treatment with each compound using Stable Isotope Labeling of Amino Acids in Cell Culture (SILAC)-based quantitative mass spectrometry (MS). (Ververis, K., Karagiannis, T. C. (2012) An atlas of histone deacetylase expression in breast cancer: fluorescence methodology for comparative semi-quantitative analysis. Am. J. Transl. Res. 4, 24-43). […] Global acetylation profiling was completed by digesting cellular proteins with trypsin and enriching the acetylated peptides by immunoprecipitation using an antibody specific for acetylated lysine residues.
MCF7 cells were grown and expanded from the same frozen vial stock, followed by differentially labeling with non-radioactive stable isotopic amino acids by growing in light, medium, and heavy SILAC media (see below for recipe), respectively (Ong, S. E., et al. Mol. Cell Proteomics 5, 376-386 (2002)). […]
EDTA, 2 μg/ml aprotinin (Sigma-Aldrich), 10 μg/ml leupeptin (Roche Applied Science), 1 mM phenylmethylsulfonyl fluoride (PMSF), and 5 mM sodium butyrate (Sigma-Aldrich). […] Protein concentrations were measured using a bicinchoninic acid (BCA) protein assay. […]

| reduction in potency for inhibition of HDAC8 (HDAC8) | Structure (SMILES) | average percentile rank of similarity to p21 (CDKN1A) overexpression signature [1] [percentile] | fold_change_at_10_uM CDKN1A (202284_s_at) (MCF7 cells [2]; MCF7, 10 uM, 24 h) | fold_change_at_10_uM CSNK1A1 (206562_s_at) (MCF7 cells [2]; MCF7, 10 uM, 24 h) | fold_change_at_10_uM DUSP3 (201536_at) (MCF7 cells [2]; MCF7, 10 uM, 24 h) | fold_change_at_10_uM ERBB2 (216836_s_at) (MCF7 cells [2]; MCF7, 10 uM, 24 h) | fold_change_at_10_uM GHR (205498_at) (MCF7 cells [2]; MCF7, 10 uM, 24 h) | fold_change_at_10_uM HMGA2 (208025_s_at) (MCF7 cells [2]; MCF7, 10 uM, 24 h) | fold_change_at_10_uM HMOX1 (203665_at) (MCF7 cells [2]; MCF7, 10 uM, 24 h) | fold_change_at_10_uM PRSS23 (202458_at) (MCF7 cells [2]; MCF7, 10 uM, 24 h) | fold_change_at_10_uM SLC25A46 (212833_at) (MCF7 cells [2]; MCF7, 10 uM, 24 h) | fold_change_at_10_uM TXNRD1 (201266_at) (MCF7 cells [2]; MCF7, 10 uM, 24 h) | fold_change_at_10_uM VAT1 (208626_s_at) (MCF7 cells [2]; MCF7, 10 uM, 24 h) | level of the p21 transcript (MCF7 cells [2]; dose range 0.04 μM-10 μM, 24 h) | number of dose-responsive genes with altered expression (MCF7 cells [2]; dose range 0.04 M-10 M) [genes] | number of dose-responsive genes with altered expression (MCF7 cells [2]; dose range 0.04 μM-10 μM) [genes] | p21 protein levels (western blot) (p21) | histone acetylation (MCF-7 cells) | changes in histone acetylation status (MCF7 cells [3]) |
| --- | --- | --- | --- | --- | --- | --- | --- | --- | --- | --- | --- | --- | --- | --- | --- | --- | --- | --- | --- |
| 1,000 fold | COc1ccc(Cn2ccc3cc(C)c(C(=O)NO)cc32)cc1 [BRD3811] | 66 | 1.956 | 1.623 | 1.586 | 1.614 | 0.7287 | 0.6073 | 2.067 | 0.6507 | 0.5635 | 1.298 | 1.389 | increased the level of p21 transcript only at the highest dose tested | 11 | – | – | – | – |
| – | COc1ccc(Cn2ccc3ccc(C(=O)NO)cc32)cc1 [PCI-34051, reference compound] | 96 | – | – | – | – | – | – | – | – | – | – | – | dose-dependent increase | – | 70 | increased p21 | not altered | did not observe any significant changes |

From US9745613B2, “Compounds, substrates and methods related to histone deacetylases” (The Broad Institute, Inc., priority 2014, dated 2017)
